We go through 14 molecules from PMC9613470, “Diverse MarR bacterial regulators of auxin catabolism in the plant microbiome” (Nature Microbiology, 2022).

Data set [1] addresses Variovorax paradoxus CL14 MarR_73 (Variovorax paradoxus, UniProt C5CSP2). Nature of the data set: biochemical. It counts as binding. The procedure: The coding sequence for each gene can be found in Supplementary Table 10. MarR expression plasmids were synthesized as codon-optimized genes for E. coli expression by BioBasic in the pLIC-His N-term vector (pMCSG7) and transformed into E. coli BL21 (DE3) Gold cells for expression. […] At an OD600 of 0.8, protein expression was induced by the addition of 0.1 mM IPTG and incubation continued overnight. Cells were collected by centrifugation at 4,500 × g for 20 min at 4 °C in a Sorvall (model RC-3B) swinging bucket centrifuge. Cell pellets were resuspended in buffer A (20 mM potassium phosphate, pH 7.4, 50 mM imidazole, 500 mM NaCl), DNase, lysozyme and a Roche Complete EDTA-free protease inhibitor tablet. Resuspended cells were sonicated and clarified via centrifugation at 17,000 × g for 60 min in a Sorvall (model RC-5B) swinging bucket centrifuge. The lysate was applied to a nickel-nitrilotriacetic acid HP column (GE Healthcare) on an Aktaxpress Fast Performance Liquid Chromatography (FPLC) system (Amersham Bioscience) and washed with buffer A. Protein was eluted with buffer B (20 mM potassium phosphate, pH 7.4, 500 mM imidazole, 500 mM NaCl). Fractions containing the protein of interest were combined and passed over a HiLoadTM 16/60 SuperdexTM 200 gel filtration column. Proteins were eluted in S200 buffer (20 mM HEPES, pH 7.4, 300 mM NaCl). Fractions were combined and concentrated for long-term storage at −80 °C.
All ITC measurements were performed at 25 °C using an Auto-ITC200 microcalorimeter (MicroCal/GE Healthcare). The buffer employed was 20 mM HEPES, pH 7.4, 50 mM NaCl and 0.5% dimethly sulfoxide (DMSO) for protein/ligand binding and 20 mM HEPES, pH 7.4 and 300 mM NaCl for DNA/protein binding experiments. For ligand binding experiments, the calorimetry cell (volume […]) was loaded with MarR wild-type, mutant or homologue protein at a concentration of 50 μM. The syringe was loaded with a ligand concentration of 0.5 or 2 mM. […] A typical injection protocol included a single 0.2 μl first injection followed by 20 1.5 μl injections of the syringe sample into the calorimetry cell. The spacing between injections was kept at 180 s and the reference power at 8 μcal s^−1. […] Two independent ITC measurements were performed for each condition.

For data set [2], the system named is Variovorax paradoxus CL14 MarR_73 S28A. The data set can be described thus: ITC binding of duplex oligo DNA to MarR_73 S28A.
The mark [3] stands for this setting: ITC, 25 °C, 20 mM HEPES pH 7.4, 50 mM NaCl, 0.5% DMSO, mean of two measurements ± standard error.
Where [4] appears, read: ITC, 25 °C, 20 mM HEPES pH 7.4, 300 mM NaCl.
[5] abbreviates: ITC, 25 °C, 20 mM HEPES pH 7.4, 300 mM NaCl, duplex oligo in cell, protein in syringe.

As a reminder, the Kd is the concentration at which binding is half-saturated.

Where two headings read alike, the source gives them in different places.

Sequence of Variovorax paradoxus CL14 MarR_73 (C5CSP2 entry or part of it): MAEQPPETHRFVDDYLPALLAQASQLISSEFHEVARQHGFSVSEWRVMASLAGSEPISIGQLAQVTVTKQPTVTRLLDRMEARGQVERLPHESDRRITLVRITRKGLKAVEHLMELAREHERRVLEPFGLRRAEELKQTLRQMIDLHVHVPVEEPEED
Sequence of Variovorax paradoxus CL14 MarR_73 S28A (as listed by the source, stated change not applied): as the sequence (C5CSP2 entry or part of it) above, with S28A counted along it

On to `O=C(O)Cc1cccc2ccccc12` [1-Naphthaleneacetic Acid], for which, in data set [1], the affinity, expressed as Kd, was 0.33 ± 0.01 µM. Moreover, in data set [1] (setting [3]), the “N (ligand binding stoichiometry to the MarR monomer)” value is recorded as 0.74 ± 0.01.
As for `O=C(O)COc1ccc(Cl)cc1Cl` [2,4-Dichorophenoxyacetic Acid], the “N (ligand binding stoichiometry to the MarR monomer)” value in data set [1] (setting [3]) came out at 1.40 ± 0.01. For the same molecule, the Kd in data set [1] (ITC, 25 °C, 20 mM HEPES pH 7.4, 50 mM NaCl, 0.5% DMSO, mean of two measurements ± standard error, read-out: KD) was 11 ± 1 µM.
On to `O=C(O)Cc1c[nH]c2ccc(O)cc12` [5-Hydroxyindole-3-Acetic Acid], for which binding in data set [1] was characterised by a dissociation constant (Kd) of 10 ± 0.3 µM. In addition, the “N (ligand binding stoichiometry to the MarR monomer)” value in data set [1] (setting [3]) was found to be 0.78 ± 0.25.
Turning to `O=C(O)c1ccccc1` [Benzoic Acid], in data set [1], the Kd stood at 13 ± 1 µM. Besides, the “N (ligand binding stoichiometry to the MarR monomer)” value in data set [1] (setting [3]) came to 0.80 ± 0.01.
In turn, `Oc1ccccc1O` [Catachol (1,2-Dihydroxybenzene), 1,2-Dihydroxybenzene] returned a Kd in data set [1] of 13 ± 0.1 µM. Besides, in data set [1] (setting [3]), the “N (ligand binding stoichiometry to the MarR monomer)” value was found to be 0.76 ± 0.01.
Molecule `O=C(O)CCCc1c[nH]c2ccccc12` [Indole-3-Butyric Acid] showed a Kd in data set [1] of 18 ± 1 µM. Moreover, the “N (ligand binding stoichiometry to the MarR monomer)” value in data set [1] (setting [3]) turned out to be 0.80 ± 0.01.
The molecule `O=C(O)c1c[nH]c2ccccc12` [Indole-3-Carboxylic Acid] had a Kd in data set [1] of 4.6 ± 0.5 µM. In addition, the “N (ligand binding stoichiometry to the MarR monomer)” value in data set [1] (setting [3]) stood at 0.67 ± 0.03.
In the case of `O=C(O)CCc1c[nH]c2ccccc12` [Indole-3-propionic Acid], the Kd in data set [1] was 17 ± 0.1 µM. In addition, the “N (ligand binding stoichiometry to the MarR monomer)” value in data set [1] (setting [3]) worked out at 0.81 ± 0.05.
Molecule `O=C(O)Cc1ccccc1` [Phenylacetic Acid] yielded a Kd in data set [1] of 10 ± 0.1 µM. Further, the “N (ligand binding stoichiometry to the MarR monomer)” value in data set [1] (setting [3]) was 0.79 ± 0.02.
In data set [1], `Nc1c(Cl)c(Cl)nc(C(=O)O)c1Cl` [Picloram] gave a Kd of 16 ± 0.4 µM. The “N (ligand binding stoichiometry to the MarR monomer)” value in data set [1] (setting [3]) was determined as 0.96 ± 0.01.
For the molecule `O=C(O)c1ccccc1O` [Salicylic Acid], the affinity in data set [1], expressed as Kd, was 14 ± 3 µM. In addition, the “N (ligand binding stoichiometry to the MarR monomer)” value in data set [1] (setting [3]) is given as 0.90 ± 0.01.
Regarding “AATTCATGATTGTGGATACATT: 22 bp duplex oligo DNA, sequence between genes 73 and 72 (antisense TTAAGTACTAACACCTATGTAA; chemistry not fully specified; one strand is listed 3' to 5')”, in data set [2] (ITC in 150 mM NaCl), binding was characterised by a dissociation constant (Kd) of 0.428 ± 0.002 µM and the N came to 1.75 ± 0.014. In addition, the “N (MarR monomer binding stoichiometry to duplex DNA)” value in data set [2] (setting [4]) was 2.1 ± 0.3. Besides, the affinity in data set [2] (setting [5]), expressed as Kd, was 0.52 ± 0.09 µM.
In data set [2] (ITC in 150 mM NaCl), “AATTCATGATTGTGGATACATTCA: 24 bp MarR_73 DNA binding sequence between genes 73 and 72 (antisense TTAAGTACTAACACCTATGTAAGT; chemistry not fully specified; one strand is listed 3' to 5')” displayed a Kd of 0.151 ± 0.025 µM and an N of 2.51 ± 0.26. The “N (MarR monomer binding stoichiometry to duplex DNA)” value in data set [2] (setting [4]) worked out at 2.5 ± 0.2. The same molecule registered a Kd in data set [2] (setting [5]) of 0.21 ± 0.09 µM.
Regarding “GTAATTCATGATTGTGGATACATTCATTTG: 30 bp duplex oligo DNA, sequence between genes 73 and 72 of the Variovorax IAA degradation locus (antisense CATTAAGTACTAACACCTATGTAAGTAAAC; chemistry not fully specified; one strand is listed 3' to 5')”, in data set [2] (setting [4]), the “N (MarR monomer binding stoichiometry to duplex DNA)” value worked out at 2.0 ± 0.1. In data set [2] (setting [5]), this molecule displayed a Kd of 0.27 ± 0.02 µM.
